Laboratory results reported in US8765728B2, “[1,5]-diazocin derivatives” (MelliTech, priority 2009, dated 2014).

Each compound was assayed on Min6 cell (assay: Insulin secretion response of beta cell line to formula I compounds (insulin ELISA)). Details: rank according to % increase versus control at most effective dose.
Format: cell-based
Description: The secretory responses of beta cell lines to glucose were tested as described in Merglen et al. Endocrinology, (2004) 145(2):667-78.
Briefly, after incubation with compounds from formula I or control vehicle, cells were maintained for 2 hours in glucose-free culture medium. The cells were then washed twice and preincubated for 30 minutes at 37° C. in glucose-free Krebs-Ringer bicarbonate HEPES buffer (KRBH: 135 mM NaCl, 3.6 mM KCl, 5 mM NaHCO3, 0.5 mM NaH2PO4, 0.5 mM MgCl2, 1.5 mM CaCl2, and 10 mM HEPES, pH 7.4). BSA (0.1%) was added as an insulin carrier. Cells were subsequently washed with glucose-free KRBH and then incubated for 30 minutes at 37° C. in KRBH containing different concentrations of glucose. The reaction was stopped by placing the plates on ice; supernatants were collected to determine insulin secretion and cells were used for intracellular insulin content following acid-ethanol extraction. Insulin was measured by ELISA (Linco) according to the manufacturer's instructions.
“5-[3-(allyloxy)-2-hydroxypropyl]-9-ethyl-6,7,9,10-tetrahydro[1,3]dioxolo[4,5-i][1,5]benzodiazocin-8(5H)-one [Compound 164]” was tested, and the “Insulin secretion (Min6 cell) Range 1 to 5” value (shortened to “Insulin secretion”) was 1 (1: 90-110% of control).
In the case of “5-benzyl-1-(isoxazole-5-carbonyl)-2,3,5,6-tetrahydrobenzo[b][1,5]diazocin-4(1H)-one [Compound 157]”, the “Insulin secretion” value is reported as 1 (1: 90-110% of control).
For “9-ethyl-5-(2-hydroxy-3-phenylpropyl)-6,7,9,10-tetrahydro[1,3]dioxolo[4,5-i][1,5]benzodiazocin-8(5H)-one [Compound 165]”, the “Insulin secretion” value was 1 (1: 90-110% of control).
For `COc1ccc2c(c1)CN(C1CC1)C(=O)CCN2` [Compound 1, 5-cyclopropyl-8-methoxy-2,3,5,6-tetrahydrobenzo[b][1,5]diazocin-4(1H)-one], the “Insulin secretion” value was 2 (2: 110-120% of control).
In the case of `COc1ccc2c(c1)CN(C1CC1)C(=O)CCN2CC(O)COc1ccccc1` (stereo not drawn) [Compound 2, 5-cyclopropyl-1-(2-hydroxy-3-phenoxypropyl)-8-methoxy-2,3,5,6-tetrahydrobenzo[b][1,5]diazocin-4(1H)-one], the “Insulin secretion” value is reported as 3 (3: 120-140% of control).
With `COc1ccc2c(c1)CN(C1CC1)C(=O)CCN2CCc1ccc(Cl)cc1` [Compound 3, 1-(4-chlorophenethyl)-5-cyclopropyl-8-methoxy-2,3,5,6-tetrahydrobenzo[b][1,5]diazocin-4(1H)-one] the “Insulin secretion” value was 1 (1: 90-110% of control).
With `COc1ccc2c(c1)CN(C1CC1)C(=O)CCN2C(=O)c1cc(C)on1` [Compound 4, 5-cyclopropyl-8-methoxy-1-(5-methylisoxazole-3-carbonyl)-2,3,5,6-tetrahydrobenzo[b][1,5]diazocin-4(1H)-one] the “Insulin secretion” value was 2 (2: 110-120% of control).
For `COc1ccc2c(c1)CN(C1CC1)C(=O)CCN2CC(=O)c1ccc(F)cc1` [Compound 5, 5-cyclopropyl-1-(2-(4-fluorophenyl)-2-oxoethyl)-8-methoxy-2,3,5,6-tetrahydrobenzo[b][1,5]diazocin-4(1H)-one], the “Insulin secretion” value was 3 (3: 120-140% of control).
With `COc1ccc2c(c1)CN(C1CC1)C(=O)CCN2CC(O)c1ccc(F)cc1` (stereo not drawn) [Compound 6, 5-cyclopropyl-1-(2-(4-fluorophenyl)-2-hydroxyethyl)-8-methoxy-2,3,5,6-tetrahydrobenzo[b][1,5]diazocin-4(1H)-one] the “Insulin secretion” value was 3 (3: 120-140% of control).
`O=C1CCNc2ccc(Br)cc2CN1C1CC1` [Compound 7, 8-bromo-5-cyclopropyl-2,3,5,6-tetrahydrobenzo[b][1,5]diazocin-4(1H)-one] was tested, and the “Insulin secretion” value was 1 (1: 90-110% of control).
For `O=C1CCNc2ccc(F)cc2CN1C1CC1` [Compound 8, 5-cyclopropyl-8-fluoro-2,3,5,6-tetrahydrobenzo[b][1,5]diazocin-4(1H)-one], the “Insulin secretion” value was 3 (3: 120-140% of control).
`O=C1CCNc2ncccc2CN1C1CC1` [Compound 9, 5-cyclopropyl-2,3,5,6-tetrahydropyrido[2,3-b][1,5]diazocin-4(1H)-one] was tested, and the “Insulin secretion” value was 2 (2: 110-120% of control).
With `O=C1CCNc2ccc(F)cc2CN1` [Compound 10, 8-fluoro-2,3,5,6-tetrahydrobenzo[b][1,5]diazocin-4(1H)-one] the “Insulin secretion” value was 4 (4: 140-170% of control).
For `COc1ccc2c(c1)CN(C1CC1)C(=O)CCN2CC(=O)c1ccccc1` [Compound 11, 5-cyclopropyl-8-methoxy-1-(2-oxo-2-phenylethyl)-2,3,5,6-tetrahydrobenzo[b][1,5]diazocin-4(1H)-one], the “Insulin secretion” value was 1 (1: 90-110% of control).
With `COc1ccc2c(c1)CN(C1CC1)C(=O)CCN2CC(=O)c1cc(OC)ccc1OC` [Compound 12, 5-cyclopropyl-1-(2-(2,5-dimethoxyphenyl)-2-oxoethyl)-8-methoxy-2,3,5,6-tetrahydrobenzo[b][1,5]diazocin-4(1H)-one] the “Insulin secretion” value was 1 (1: 90-110% of control).
